13 molecules from patent US7504393B2, “Benzylamine analogues” (priority 2001, dated 2009) can be followed below.

Usually IC50 stands for the concentration that gives 50% inhibition.

Counter-ions that a name gives are not always drawn.

T1 sequence (P31652 whole entry): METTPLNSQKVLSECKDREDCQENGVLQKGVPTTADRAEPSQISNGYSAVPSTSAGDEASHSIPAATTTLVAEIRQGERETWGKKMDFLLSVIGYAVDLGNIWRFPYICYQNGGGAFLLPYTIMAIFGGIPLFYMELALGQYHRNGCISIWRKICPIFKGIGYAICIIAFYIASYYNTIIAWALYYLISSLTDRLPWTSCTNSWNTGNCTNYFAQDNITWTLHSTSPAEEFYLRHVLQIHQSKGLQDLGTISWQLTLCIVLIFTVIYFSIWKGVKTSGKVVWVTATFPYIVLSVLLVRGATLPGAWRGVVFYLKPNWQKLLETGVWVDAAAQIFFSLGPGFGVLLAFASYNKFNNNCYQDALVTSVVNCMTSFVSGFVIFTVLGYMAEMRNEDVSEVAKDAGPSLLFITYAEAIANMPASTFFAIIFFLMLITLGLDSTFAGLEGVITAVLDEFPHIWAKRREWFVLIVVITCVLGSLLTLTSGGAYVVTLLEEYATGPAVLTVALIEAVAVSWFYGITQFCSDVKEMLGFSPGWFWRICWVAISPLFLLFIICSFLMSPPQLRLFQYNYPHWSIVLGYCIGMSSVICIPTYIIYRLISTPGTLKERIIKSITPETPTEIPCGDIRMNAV

One test addresses T1, serotonin re-uptake (Rattus norvegicus, UniProt P31652).
T1 construct: synaptosome prepared from rat whole brains except the cerebellums; from tissue; host or cells: synaptosomes from rat whole brain except the cerebellum
As to the kind of experiment: Serotonin re-uptake inhibitory activity (synaptosome, [3H]5-HT). It counts as biochemical.
Settings: not given
The procedure: Serotonin re-uptake inhibitory activity was determined using synaptosome prepared from rat whole brains except the cerebellums. Briefly, 10 μl of DMSO solution-dissolved test substance (control group; DMSO solution alone) was added to 1 ml of synaptosome and incubated for 5 min at 37° C. (in the control, DMSO alone was added to the synaptosome and incubated at 4° C.). Furthermore, 10 μl of [^3H]5-HT solution (final concentration: 10 μM as a total concentration of 5-HT, 100 nM as [^3H]5-HT) was added and incubated for 5 min at 37° C. Then 4 ml of ice-cold saline was added to stop the response. The response solution was filtered, 4 ml of saline was added, and the solution was once again filtered. Furthermore, 5 ml of Pico-Fluor was added, then ^3H levels on filter papers were counted by a liquid scintillation counter. Concentrations of test compounds to inhibit serotonin re-uptake by 50% (IC50) were calculated.
As for `Cc1cc(OCCC2c3cccc(OC(=O)N(C)C)c3C=CCN2C)ccc1Cl` (stereo not shown) [Test Compound 202, 2-Methyl-[2-(4-chloro-3-methylphenoxy)-ethyl]-2,3-dihydro-1H-benzo[c]azepin-6-yl dimethylcarbamate hydrochloride], the concentration for half-maximal inhibition (IC50) was 900 nM.

Still in this test, the particulars now being: synaptosome from rat whole brain except cerebellum; [3H]5-HT, 37° C.; read-out: IC50 (nM) Serotonin re-uptake inhibitory activity.
In the case of “2-Methyl-1-[2-(4-methylthiophenoxy)-ethyl]-2,3-dihydro-1H-benzo[c]azepin-7-yl dimethylcarbamate hydrochloride [Test Compound 196]”, the concentration for half-maximal inhibition (IC50) amounted to 18 nM. Same read-out and setting: next, “2-Methyl-(1R)-[2-(4-methylthiophenoxy)-ethyl]-2,3-dihydro-1H-benzo[c]azepin-7-yl dimethylcarbamate hydrochloride [Test Compound 197]”: 6 nM; “4-[3-(4-Chlorophenoxy)-1-dimethylaminopropyl]-2-methylphenyl dimethylcarbamate hydrochloride [Test Compound 185]”: 170 nM. With “4-[3-(4-Methylthiophenoxy)-1-dimethylaminopropyl]-2-methylphenyl dimethylcarbamate hydrochloride [Test Compound 186]”, the IC50 is 62 nM. Same read-out and setting: next, “4-[3-(4-Methylthiophenoxy)-1-dimethylaminopropyl]phenyl dimethylcarbamate hydrochloride [Test Compound 175]”: 380 nM; “4-[3-(4-Methylthiophenoxy)-1-methylaminopropyl]phenyl dimethylcarbamate hydrochloride [Test Compound 174]”: 85 nM.

Consider “4-[3-(4-Nitrophenoxy)-1-dimethylaminopropyl]-2-methylphenyl dimethylcarbamate hydrochloride [Test Compound 182]”, for which the IC50 turned out to be 44 nM. Turning to `CN(C)C(=O)Oc1ccc2c(c1)C=CCN(C)C2CCOc1ccc([N+](=O)[O-])cc1` (stereo not shown) [Test Compound 192, 2-Methyl-1-[2-(4-nitrophenoxy)-ethyl]-2,3-dihydro-1H-benzo[c]azepin-7-yl dimethylcarbamate hydrochloride], the half-maximal inhibitory concentration (IC50) is 63 nM. In the case of `CN(C)C(=O)Oc1ccc2c(c1)C=CCN(C)[C@@H]2CCOc1ccc([N+](=O)[O-])cc1` [Test Compound 199, 2-Methyl-[[(1S)]] (1R)-[2-(4-nitrophenoxy)-ethyl]-2,3-dihydro-1H-benzo[c]azepin-7-yl dimethylcarbamate hydrochloride], the IC50 was 6 nM.

For `CN(C)C(=O)Oc1ccc2c(c1)C=CCN(C)[C@H]2CCOc1ccc([N+](=O)[O-])cc1` [Test Compound 200, 2-Methyl-(1S)-[2-(4-nitrophenoxy)-ethyl]-2,3-dihydro-1H-benzo[c]azepin-7-yl dimethylcarbamate hydrochloride], the IC50 amounted to 930 nM. Still for that read-out and setting: next, “(R)-4-[3-(4-Methylthiophenoxy)-1-methylaminopropyl]phenyl dimethylcarbamate hydrochloride [Test Compound 177]”: 120 nM; “(S)-4-[3-(4-Methylthiophenoxy)-1-methylaminopropyl]phenyl dimethylcarbamate hydrochloride [Test Compound 176]”: 56 nM.
